{
  "source": "patent US10690657B2",
  "about": "“Epithelial tissue model” (Nederlandse Organisatie voor …, priority 2012, dated 2020)",
  "key": {"porcine jejunal tissue [1]": {"system": "porcine jejunal tissue", "assay": "Transport (apical to basolateral) across porcine jejunal tissue, Papp", "conditions": "animal of 12 kg body weight in comparison to an animal of 17 or 20 kg (FIG. 10)", "from_the_text": "(§1) After anesthesia of the animal and resection of intestinal tissue, the tissue was directly added to ice-cold carbonated (5% CO2 and 95% O2) KRB buffer, pH 7.4, further referred to as KRB buffer. • 2. Intestinal tissue was transported to the test site in ice-cold KRB buffer • 3. At the test site, the intestinal tissue was cut open, rinsed with ice-cold KRB buffer when needed, placed on a petridish, submerged in ice-cold KRB buffer and muscle layers were stripped of. • 4. Intestinal segments with a diameter of 20 mm were punched, added to ice-cold KRB buffer, and kept on ice. • 5. After collecting all the segments needed for the incubation, the system was assembled (including to a total of 24 segments per system) and placed on ice. […] Subsequently, samples were taken from the apical and basolateral compartments for further analysis either using liquid scintillation counting (LSC), UV-Absorbance, Fluorescence, High Pressure Liquid Chromatography (HPLC), Liquid chromatography-Mass Spectrometry (LCMS), Liquid chromatography-Tandem Mass Spectrometry (LC-MSMS), Enzyme-Linked Immunosorbent Assay (ELISA), or Radio-Immuno Assay (RIA). • 11. […]\n(§2) The apparent permeability value (Papp) is calculated using the following equation: Papp=(dQ/dt)/(A*C0), where dQ/dt refers to the permeability rate (mol/s), A is the surface area filter insert (cm2) and C0 is the initial concentration (mol/L). […]"}, "porcine jejunal tissue [2]": {"system": "porcine jejunal tissue", "from_the_text": "as §1, §2"}, "porcine ileal tissue": {"system": "porcine ileal tissue", "assay": "Translocation across porcine ileal tissue", "type": "in vitro ADME", "conditions": "between 0 and 60 minutes (FIG. 11)", "description": "Translocation of the bacterial endotoxin lipopoly-saccharide (LPS) across the porcine ileal tissue during incubation time."}},
  "data": [
    {"compound": "Cn1c(N)nc2ncc(-c3ccccc3)cc21", "note": "[[14C]-PhIP, 2-amino-1-methyl-6-phenylimidazo[4,5-b]pyridine]", "values": [
      {"measurement": "Transport across porcine jejunal tissue from animals with a different age", "setting": "porcine jejunal tissue [1]", "result": "higher transport"}
    ]},
    {"compound": "Cn1c(=O)c2c(ncn2C)n(C)c1=O", "note": "[caffeine]", "values": [
      {"measurement": "Apparent permeability (Papp) over time", "setting": "porcine jejunal tissue [2]", "result": "constant Papp value over time"}
    ]},
    {"compound": "lipopolysaccharide [LPS]", "values": [
      {"measurement": "Lag time of transport across porcine ileal tissue", "setting": "porcine ileal tissue", "result": "clear lag time of transport"}
    ]}
  ]
}
